Assays:
Test in all cases: AUC of viability dose-response curve (% viability x log10 dose units); higher = less sensitive
Settings in all cases: 48 h
NOMO1 = system: NOMO1
Procedure, shortened: (§1)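 Leukemia cells adapted to each medium (500 or 1000 cells/well, 1536-well plates) were exposed to library compounds in DMSO for 48 h at 37°C at 11 threefold doses, 47 μM to 0.79 nM. Luminescence by CellTiter-Glo One was normalised per plate to DMSO and cell-free wells, then fitted with a four-parameter log-logistic curve on log10 dose. Curves above full viability were scaled and quality-control failures removed before area under the curve was integrated by trapezoidal rule.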

P12-Ichikawa = system: P12-Ichikawa
Procedure, shortened: as §1

SEM cells = system: SEM cells
Procedure, shortened: as §1

[1] = RPMI 5 mM glucose + 10% dialyzed FBS

Structure (SMILES)	AUC of viability dose-response curve (NOMO1; HPLM + 10% dialyzed FBS)	AUC of viability dose-response curve (NOMO1; RPMI 5 mM glucose + 10% FBS)	AUC of viability dose-response curve (NOMO1; [1])	AUC of viability dose-response curve (P12-Ichikawa; HPLM + 10% dialyzed FBS)	AUC of viability dose-response curve (P12-Ichikawa; RPMI 5 mM glucose + 10% FBS)	AUC of viability dose-response curve (P12-Ichikawa; [1])	AUC of viability dose-response curve (SEM cells; HPLM + 10% dialyzed FBS)	AUC of viability dose-response curve (SEM cells; RPMI 5 mM glucose + 10% FBS)	AUC of viability dose-response curve (SEM cells; [1])
C[N]1C=C(C=N1)C2=CC=C3N=CC\4=C(N(C(=O)\C=C4)C5=CC6=C(CCN6C(=O)C=C)C=C5)C3=C2	359	396	375	404	391	393	359	360	353
Oc1ccc(-c2ccc(-c3cc(Nc4cccc(CNC5CC5)c4)[nH]n3)cc2)c(O)c1	402	396	409	403	372	404	321	376	374
N#Cc1ccnc(N2C(=O)CC[C@H]2C(=O)N(c2cncc(F)c2)[C@H](C(=O)NC2CC(F)(F)C2)c2ccccc2Cl)c1	348	356	380	321	333	361	359	334	379
N=C(N)Nc1ccc(C(=O)Oc2ccc3cc(C(=N)N)ccc3c2)cc1	446	406	396	437	443	404	419	392	441
NNc1nncc2ccccc12	472	461	466	470	452	463	436	454	438
O=C(NCc1ccccc1)c1csc(Nc2ccncn2)n1	345	331	335	386	358	367	310	287	310
CN1CCN(CCCN2c3ccccc3Sc3ccc(Cl)cc32)CC1.O=C(O)/C=C\C(=O)O.O=C(O)/C=C\C(=O)O	362	390	386	429	421	423	471	466	465
CN(C)CCc1c[nH]c2ccc(C[S+](=O)([O-])N3CCCC3)cc12	459	468	460	471	466	466	453	427	433
Cc1cccc(-c2[nH]c(C(C)(C)C)nc2-c2ccc3c(c2)OCO3)n1	418	399	398	413	406	423	411	409	411
CC(C)[N+]1(C)C2CCC1CC(OC(=O)C(CO)c1ccccc1)C2.O.[Br-] (stereo unspecified)	423	457	450	383	427	417	449	423	422
NC\1=N\C(=O)N(\C=C1F)[C@H]2C[C@H](O)[C@@H](CO)O2	280	360	239	285	279	264	270	359	201
CC(C)(O)C(=O)Nc1ccc([N+](=O)[O-])c(C(F)(F)F)c1	368	355	371	404	409	438	465	449	448
CN(C(Cc1ccc(O[S+](=O)([O-])c2cccc3cnccc23)cc1)C(=O)N1CCN(c2ccccc2)CC1)[S+](=O)([O-])c1cccc2cnccc12 (stereo unspecified)	442	425	436	452	434	450	436	424	428
COc1ccc2[nH]cc(CCNC(C)=O)c2c1	474	429	462	451	458	444	472	469	446
CCCCc1nc2cc(/C=C/C(=O)NO)ccc2n1CCN(CC)CC	370	326	349	345	337	348	344	345	303
CC[C@@H]1C(=O)N(C)c2cnc(Nc3ccc(C(=O)NC4CCN(C)CC4)cc3OC)nc2N1C1CCCC1	259	240	252	187	196	210	205	215	213
O=[S+]([O-])(NCCNC/C=C/c1ccc(Br)cc1)c1cccc2cnccc12	452	446	425	462	460	458	377	418	354
Cc1c(C(=O)c2cccc3ccccc23)c2cccc3c2n1[C@H](CN1CCOCC1)CO3	432	404	394	417	366	397	372	375	403
CC(C)n1cnc2c(NCCc3ccc(O)cc3)nc(-c3csc4ccccc34)nc21	393	434	433	371	428	422	424	396	388
CCOC(=O)N[C@@H]1CC[C@@H]2[C@@H](C1)C[C@H]1C(=O)O[C@H](C)[C@H]1[C@H]2/C=C/c1ccc(-c2cccc(F)c2)cn1	466	467	468	472	464	466	473	458	461
COc1cc2ncnc(Nc3cccc(Cl)c3)c2cc1OC	286	370	343	309	315	305	287	242	274
CC(C)CC(N(C)C)C1(c2ccc(Cl)cc2)CCC1 (stereo unspecified)	441	457	463	393	392	382	424	408	406
C[C@H]1Oc2cc(cnc2N)-c2c(nn(C)c2C#N)CN(C)C(=O)c2ccc(F)cc21	459	467	463	462	463	461	446	457	473
CCOC(=O)[C@H]1O[C@@H]1C(=O)N[C@@H](CC(C)C)C(=O)NCCC(C)C	448	445	456	462	461	469	462	475	462

Reference: the supplement of paper PMC11451515
